Results on one molecule are retold here after article PMC12030627, “Radioiodinated Bicyclic RGD Peptide Derivatives for Enhanced Tumor Accumulation” (Pharmaceuticals, 2025).

The test system of the data set is A549 and U-87 MG co-implantation mice. Nature of the data set: Biodistribution in A549 and U-87 MG co-implantation mice. It counts as in vivo, BALB/c nu-nu mice. The protocol:
Animal experiments were performed in compliance with institutional animal care regulations, with the study protocol approved by the Experimental Animal Committee of Osaka Medical and Pharmaceutical University (Approval Numbers: 21–76, 22–76, and 23–76). Four-week-old male BALB/c nu-nu mice (Japan SLC, Shizuoka, Japan) were housed under a 12 h light/12 h dark cycle with free access to food and water. Tumor-bearing mice were established by suspending U-87 MG cells (2 × 10^6 cells/mouse) in PBS(–) and subcutaneously injecting 100 μL of the suspension into the right hind leg. For co-implantation models, A549 cells (2 × 10^6 cells/mouse) were suspended in PBS(–) and inoculated (100 μL) into the left hind leg of the same mice already inoculated with U-87 MG cells. Mice with tumor size approximately 10 mm in diameter, 4–5 weeks after inoculation, were used for biodistribution studies. Animals in which either tumor was not viable were excluded from the experiment.
U-87 MG-bearing mice (n = 42, 8–9 weeks old; 22–27 g) were randomly assigned into groups and administered [^125I]bcRGDpal or [^125I]bcRGDiba via intravenous injection (37 kBq in 100 μL of PBS containing 0.1% Tween 80 (PBS-T80)). At 5 min, 30 min, 1 h, 2 h, 6 h, 12 h, or 24 h post-injection, the mice were euthanized (n = 3 per time point). The heart, kidneys, liver, brain, pancreas, spleen, lung, small intestine, large intestine, muscle, skin, stomach, bone, and tumors were excised. Each organ’s weight and radioactivity were measured by a NaI well-type scintillation counter, and the % ID/g was calculated. To investigate the correlation between integrin expression and radioactivity accumulation, biodistribution at 2 h after administration of [^125I]bcRGDpal or [^125I]bcRGDiba was assessed in A549 and U-87 MG co-implantation mice (n = 5) using the same procedure. Additionally, co-implantation mice were injected with [^125I]bcRGDdimer (37 kBq/100 μL PBS-T80) and euthanized at 30 min, 2 h, and 4 h post-injection (n = 4 per time point), and % ID/g values were calculated as described above. The minimum sample size needed for the biodistribution study in U-87 MG-bearing mice was calculated using G Power software version 3.1.9.7. The calculation was based on a two-tailed test, with an effect size of 3.9, a significance level (α) of 0.05, and a statistical power (1 − β) of 0.8. […] The minimum required sample size for the biodistribution study in A549 and U-87 MG co-implantation mice was also calculated to be four animals per group (effect size = 2.5, α = 0.05, 1 − β = 0.8). To guarantee objective results, the experiment was carried out in a blinded manner. Specifically, drug administration and radioactivity measurements were conducted by different investigators to eliminate potential bias.

The mark [1] stands for this setting: 30 min after i.v. administration, U-87 MG and A549 co-implanted mice, mean ± SD, n = 4.
Setting [2] is: 2 h after i.v. administration, U-87 MG and A549 co-implanted mice, mean ± SD, n = 4.
The mark [3] stands for this setting: 4 h after i.v. administration, U-87 MG and A549 co-implanted mice, mean ± SD, n = 4.

Regarding `N=C(N)NCCC[C@@H]1NC(=O)[C@H]2CSCc3cc(cc(c3)CSC[C@H](C(N)=O)NC(=O)[C@H](CC(=O)O)NC(=O)CNC1=O)CSC[C@H](NC(=O)CNC(=O)[C@H](CO)NC(=O)c1ccc(NC(=O)CNC(=O)[C@H](CO)NC(=O)[C@@H]3CCCN3C(=O)[C@@H]3CCCN3C(=O)[C@@H]3CCCN3C(=O)CCc3cn(CC[C@H](NC(=O)CCNC(=O)c4cccc(I)c4)C(=O)N4CCC[C@H]4C(=O)N4CCC[C@H]4C(=O)N4CCC[C@H]4C(=O)N[C@@H](CO)C(=O)NCC(=O)Nc4ccc(C(=O)N[C@@H](CO)C(=O)NCC(=O)N[C@H]5CSCc6cc7cc(c6)CSC[C@@H](NC(=O)[C@H](CCC(N)=O)NC(=O)[C@@H]6CCCN6C(=O)[C@H](Cc6c[nH]cn6)NC5=O)C(=O)N[C@@H](CCCNC(=N)N)C(=O)NCC(=O)N[C@@H](CC(=O)O)C(=O)N[C@@H](C(N)=O)CSC7)cc4)nn3)cc1)C(=O)N[C@@H](Cc1c[nH]cn1)C(=O)N1CCC[C@H]1C(=O)N[C@@H](CCC(N)=O)C(=O)N2` [[^125I]bcRGDdimer], under setting [1], the Radioactivity in thyroid is given as 0.0 ± 0.0 % injected dose and the U87/Muscle radioactivity ratio was 7.1 ± 1.8. Under setting [2], the Radioactivity in brain was 0.0 ± 0.0 % injected dose per gram of tissue, the Radioactivity in thyroid is 0.0 ± 0.0 % injected dose, the U87/Blood radioactivity ratio is 22 and the U87/Muscle radioactivity ratio is 13.9 ± 6.8. Besides, the Lung-to-blood radioactivity ratio (2 h post-administration) was 3.7. Further, for the setting “2 h post-administration, co-implanted mice”, the “Accumulation ratio U87/A549” value came to 5.4. Moreover, under setting [3], the Radioactivity in brain is given as 0.0 ± 0.0 % injected dose per gram of tissue, the Radioactivity in thyroid is on record as 0.0 ± 0.0 % injected dose and the U87/Muscle radioactivity ratio is 10.3 ± 2.5.
